Laboratory results from patent US12636317B2, “Manipulation and use of antigen-specific regulatory T cells” (The Board of Trustees of the Leland Stanford Junior …, priority 2019, dated 2026).

Key:
[1] = tested on: EAE7-CD8 TCR; type: binding, mouse; settings: Jurkat αβ−/− cells, H2-Db tetramer
[2] = tested on: SP specific CD8+ T cells; experiment: Tetramer enrichment of SP-specific CD8+ T cells from spleen and LN after immunization; type: in vivo, C57BL/6J mice; settings: 10D PI
[3] = tested on: EAE6-CD8 TCR; type: binding, mouse; settings: Jurkat αβ−/− cells, H2-Db tetramer
[4] = tested on: experimental autoimmune encephalomyelitis (EAE); experiment: Induction and evaluation of EAE (clinical scores); type: in vivo, C57BL/6J mice
[5] = tested on: MOG35-55 specific CD4+ T cells; experiment: Tetramer enrichment of MOG35-55 I-Ab specific CD4+ T cells from spleen and LN after immunization; type: in vivo, C57BL/6J mice; settings: D10 after immunization
[6] = tested on: MOG35-55 specific CD4+ T cells; experiment: In vitro proliferation/suppression assay (CTV dilution); type: cell-based, mouse; settings: CD4+ T cells from MOG immunized mice stimulated with MOG35-55
Procedure: In vitro proliferation/suppression assay. Spleen and LN cells were harvested from WT or immunized mice. Single cell suspensions were prepared, and RBCs were lysed using Ack lysis buffer (ThermoFisher scientific A1049201). […] Post CD4+ T cell enrichment, cells were counted and labelled with CellTrace™ Violet Dye (ThermoFisher scientific C34557) according to manufacturer instructions.
In vitro proliferation/suppression assays were set up according to previously published protocol. Briefly, labelled CD4+ T cells were co-cultured either with CD8+ T cells (1:1 ratio, 0.25×10^6 cells/well) or without CD8+ T cells in the presence of pan DC's (0.75×10^6 cells/well). In some of the suppression experiments cells were pre-included with 10 μg/ml of anti-Qa-1b neutralizing antibody (6A8.6F10.1A16, BD Biosciences). Cells were cultured in a total volume of 200 μl in a 96-well round bottom plate. The CD4+ T cells were stimulated with either MOG35-55 or not. On day 7, the cells were washed and stained with surface antibodies and analyzed on LSR II (Becton Dickinson).

[7] = tested on: ovalbumin specific TCR (OT-1) expressed in 58 αβ−/− cells; experiment: T cell stimulation assay (CD69) with peptide- or protein-pulsed BMDCs; type: cell-based, mouse; settings: co-culture with loaded BMDCs
Procedure: T cell stimulation assays. T cell stimulation assays were performed as previously described. All the T cell peptide stimulation experiments were done in 96 well round bottom plates with a 200 μl total volume. T2, K562 cells or BMDCs were pulsed with 10-100 μg of the peptides for 45 minutes, washed once and plated (10,000 cells/well). Cell lines expressing TCRs (100,000 cells/well) were co-cultured with APCs for 18 hr. At the end of stimulation, cells were harvested, washed, and stained with TCRβ, human CD3, and CD69 and analyzed on LSR II (Becton Dickinson) for activation.

[8] = tested on: 6218 TCR; type: binding, mouse; settings: Jurkat αβ−/− cells, H2-Db tetramer
[9] = biological target: T1, yeast H2-Db library peptide enriched by the EAE6-CD8 TCR peptide on H2-Db (mouse); experiment: binding, other
T1 peptide: NHRTNRYFFL

[10] = biological target: T2, yeast H2-Db library peptide enriched by the EAE6-CD8 TCR peptide on H2-Db (mouse); experiment: binding, other
T2 peptide: ASIANWPLAI

[11] = biological target: T3, yeast H2-Db library peptide enriched by the EAE6-CD8 TCR peptide on H2-Db (mouse); experiment: binding, other
T3 peptide: NHRNNRYFFL

[12] = biological target: T4, yeast H2-Db library peptide enriched by the EAE6-CD8 TCR peptide on H2-Db (mouse); experiment: binding, other
T4 peptide: GTEFNHWAAI

[13] = biological target: T5, yeast H2-Db library peptide enriched by the EAE6-CD8 TCR peptide on H2-Db (mouse); experiment: binding, other
T5 peptide: FQRGNRLMWL

[14] = biological target: T6, surrogate peptide (SP) from the yeast H2-Db library; no match in the mouse genome peptide on H2-Db (mouse); experiment: multimer staining
T6 peptide: SMRPNHFFFL

[15] = biological target: T7, surrogate peptide (SP) from the yeast H2-Db library; no match in the mouse genome peptide on H2-Db (mouse); experiment: multimer staining
T7 peptide: ASRSNRYFWL

[16] = biological target: T8, myelin oligodendrocyte glycoprotein (MOG); the tetramer is called MOG35-55 I-Ab in the results peptide on … (mouse); experiment: multimer staining
T8 peptide: GWYRSPFSRVV

[17] = biological target: T9, yeast H2-Db library peptide enriched by the EAE7-CD8 TCR peptide on H2-Db (mouse); experiment: binding, other
T9 peptide: WSLRNLVML

[18] = biological target: T10, yeast H2-Db library peptide enriched by the EAE7-CD8 TCR peptide on H2-Db (mouse); experiment: binding, other
T10 peptide: TRLVNDVDL

[19] = biological target: T11, yeast H2-Db library peptide enriched by the EAE7-CD8 TCR peptide on H2-Db (mouse); experiment: binding, other
T11 peptide: QRHENLHRM

[20] = biological target: T12, yeast H2-Db library peptide enriched by the EAE7-CD8 TCR peptide on H2-Db (mouse); experiment: binding, other
T12 peptide: RDVHNPDVI

[21] = biological target: T13, yeast H2-Db library peptide enriched by the EAE7-CD8 TCR peptide on H2-Db (mouse); experiment: binding, other
T13 peptide: RRILNLGGM

[22] = biological target: T14, yeast H2-Db library peptide enriched by the EAE7-CD8 TCR peptide on H2-Db (mouse); experiment: binding, other
T14 peptide: TCAYNPRGM

[23] = biological target: T15, surrogate peptide (SP) from the yeast H2-Db library; no match in the mouse genome peptide on H2-Db (mouse); experiment: multimer staining
T15 peptide: HDRVNWEYI

[24] = biological target: T16, surrogate peptide (SP) from the yeast H2-Db library; no match in the mouse genome peptide on H2-Db (mouse); experiment: multimer staining
T16 peptide: YQPGNWEYI

[25] = MOG+SP immunization, spleen and LN
[26] = SP immunization in comparison to WT mice
[27] = Table 6, MOG35-55 with or without SP, mean ± SEM
[28] = Table 6, immunization with MOG35-55, CFA and PTX with or without SP, n=10
[29] = Table 7, MOG, SP challenge, MOG challenge (challenge seven days after first immunization), n=10
[30] = Table 7, challenge seven days after first immunization, affected if clinical scores ≥1 for ≥2 consecutive days
[31] = Table 7, challenge seven days after first immunization, mean ± SEM

Molecule: HDRVNWEYI [36th enriched peptide for EAE7-CD8 TCR]
- pMHC tetramer staining of EAE7-CD8 TCR cells [1]: robust tetramer staining
- frequency of CD8+ T cells specific for the peptide [2, 25]: increased
- frequency of CD8+ T cells specific for the peptide [2, 26]: higher frequency

Molecule: SMRPNHFFFL [surrogate peptide for EAE6-CD8 TCR from H2-Db yeast library]
- pMHC tetramer staining of EAE6-CD8 TCR cells [3]: robust staining
- frequency of CD8+ T cells specific for the peptide [2, 25]: increased
- frequency of CD8+ T cells specific for the peptide [2, 26]: higher frequency

Molecule: MOG35-55: EAE-inducing myelin oligodendrocyte glycoprotein peptide 35-55 (MEVGWYRSPFSRVVHLYRNGK; UniProt Q61885 63-83, looked up, fragment)
- incidence of EAE disease (of the mice) ([4]; MOG immunization with or without SP): 100%
- CDS, cumulative disease score [4, 27]: 46.3 ± 5.9
- DA, days affected [4, 27]: 16.3 ± 0.7
- DO, day of onset in affected animals [4, 27]: 13.8 ± 0.2
- PS, peak score [4, 27]: 3.2 ± 0.4
- SI, severity index (cumulative disease score/days affected) [4, 27]: 3 ± 0.4
- Incidence (affected/total) [4, 28]: 10/10
- Incidence, percentage affected [4, 28]: 100%
- Incidence (affected/total) [4, 29]: 10/10
- Incidence, percentage affected [4, 30]: 100%
- CDS, cumulative disease score over 30 days of experiment [4, 31]: 55.8 ± 3.9
- DA, days affected [4, 31]: 17 ± 0.3
- DO, day of onset in affected animals [4, 31]: 13.3 ± 0.3
- PS, peak score [4, 31]: 4 ± 0.1
- SI, severity index (cumulative disease score/days affected) [4, 31]: 3.14 ± 0.2
- SP specific CD8+ T cells detected ([2]; MOG35-55 immunized mice): very few
- frequency/number of MOG35-55 I-Ab tetramer+ CD4+ T cells [5]: elicited
- frequency/number of MOG35-55 I-Ab tetramer+ CD4+ T cells ([5]; listed as MOG): increase
- CD4+ T cell proliferation in the absence of CD8+ T cells [6]: proliferated robustly

Molecule: YQPGNWEYI [top enriched surrogate peptide for EAE7-CD8 TCR]
- pMHC tetramer staining of EAE7-CD8 TCR cells [1]: robust staining
- frequency of CD8+ T cells specific for the peptide [2, 26]: no change

Molecule: MOG challenge: mice immunized with SP, then challenged with MOG35-55 seven days after immunization (MEVGWYRSPFSRVVHLYRNGK; UniProt Q61885 63-83, looked up, fragment)
- Incidence (affected/total) [4, 29]: 6/10
- Incidence, percentage affected [4, 30]: 60%
- CDS, cumulative disease score over 30 days of experiment [4, 31]: 43.3 ± 5.3
- DA, days affected [4, 31]: 8.2 ± 2.5
- DO, day of onset in affected animals [4, 31]: 10 ± 2.8
- PS, peak score [4, 31]: 1.5 ± 0.4
- SI, severity index (cumulative disease score/days affected) [4, 31]: 1.29 ± 0.3

Molecule: SIINFEKL [ovalbumin derived peptide]
- activation (CD69) of OT-1 TCR cells [7]: robust activation

Molecule: SSLENFRAYV [H2-Db-restricted acid polymerase peptide 224-233, ligand of 6218 TCR]
- pMHC tetramer staining of 6218 TCR cells [8]: robust staining

Molecule: ASRSNRYFWL [surrogate peptide for EAE6-CD8 TCR from H2-Db yeast library]
- pMHC tetramer staining of EAE6-CD8 TCR cells [3]: robust staining
- frequency of CD8+ T cells specific for the peptide [2, 25]: increased
- frequency of CD8+ T cells specific for the peptide [2, 26]: no change

B1: EAE6-CD8 (TCR)
alpha mTRAV12-1 mTRAJ31 CDR3: CALSDYNRIFF
beta mTRBV19 mTRBJ2-3 CDR3: CASSITPLGGLETLYF
- binding result [9]: recognises
- binding result [10]: recognises
- binding result [11]: recognises
- binding result [12]: recognises
- binding result [13]: recognises
- binding result [14]: recognises
- binding result [15]: recognises

B2: EAE2-CD4 (TCR)
alpha mTRAV12-1 mTRAJ23 CDR3: CALRNYNQGKLIF
beta mTRBV16 mTRBJ1-4 CDR3: CASSLDQGWDERLFF
- binding result [16]: recognises

B3: EAE3-CD4 (TCR)
alpha mTRAV14D-1 mTRAJ43 CDR3: CAASGANNNNAPRF
beta mTRBV3 mTRBJ2-5 CDR3: CASSLEGHQDTQYF
- binding result [16]: recognises

B4: EAE7-CD8 (TCR)
alpha mTRAV5D-4 mTRAJ45 CDR3: CAASVNTEGADRLTF
beta mTRBV15 mTRBJ1-1 CDR3: CASTNRGEVFF
- binding result [17]: recognises
- binding result [18]: recognises
- binding result [19]: recognises
- binding result [20]: recognises
- binding result [21]: recognises
- binding result [22]: recognises
- binding result [23]: recognises
- binding result [24]: recognises

B5: ovalbumin protein: whole OVA protein (protein, UniProt P01012 2-386, looked up)
Ovalbumin: GSIGAASMEFCFDVFKELKVHHANENIFYCPIAIMSALAMVYLGAKDSTRTQINKVVRFDKLPGFGDSIEAQCGTSVNVHSSLRDILNQITKPNDVYSFSLASRLYAEERYPILPEYLQCVKELYRGGLEPINFQTAADQARELINSWVESQTNGIIRNVLQPSSVDSQTAMVLVNAIVFKGLWEKAFKDEDTQAMPFRVTEQESKPVQMMYQIGLFRVASMASEKMKILELPFASGTMSMLVLLPDEVSGLEQLESIINFEKLTEWTSSNVMEERKIKVYLPRMKMEEKYNLTSVLMAMGITDVFSSSANLSGISSAESLKISQAVHAAHAEINEAGREVVGSAEAGVDAASVSEEFRADHPFLFCIKHIATNAVLFFGRCVSP
- activation (CD69) of OT-1 TCR cells [7]: robustly stimulated
